Test results published in ChEMBL document CHEMBL3392989 (Bioorg Med Chem Lett, 2015).
The source made the active and inactive calls. The rule behind the calls is not given here.

Assays:
[1] = Metal chelating activity assessed as copper chelation activity by measuring barhochromic shift at 40 uM using CuCl2 UV-vis spectroscopy; type: physicochemical
[2] = molecular target: Cholinesterase (Equus caballus, UniProt P81908); test: Inhibition of horse serum BuChE pre-incubated for 20 mins before […] substrate addition by Ellman's assay
Cholinesterase, sequence (P81908 whole entry): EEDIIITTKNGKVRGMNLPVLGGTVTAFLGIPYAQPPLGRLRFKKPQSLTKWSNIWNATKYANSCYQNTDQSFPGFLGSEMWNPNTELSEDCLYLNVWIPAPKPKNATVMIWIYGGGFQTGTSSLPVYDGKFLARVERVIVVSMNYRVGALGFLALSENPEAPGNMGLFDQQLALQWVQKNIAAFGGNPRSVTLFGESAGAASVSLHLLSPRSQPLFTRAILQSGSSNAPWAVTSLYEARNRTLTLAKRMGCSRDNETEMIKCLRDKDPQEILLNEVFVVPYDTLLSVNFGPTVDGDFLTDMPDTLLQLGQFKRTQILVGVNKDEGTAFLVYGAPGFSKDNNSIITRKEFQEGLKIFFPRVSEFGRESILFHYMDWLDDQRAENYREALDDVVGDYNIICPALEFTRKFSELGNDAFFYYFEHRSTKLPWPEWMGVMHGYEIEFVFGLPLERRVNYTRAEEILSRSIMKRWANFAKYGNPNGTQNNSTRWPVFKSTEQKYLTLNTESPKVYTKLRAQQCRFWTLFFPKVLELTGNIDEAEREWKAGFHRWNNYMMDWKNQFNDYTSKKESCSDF

[3] = molecular target: Acetylcholinesterase (Electrophorus electricus, UniProt O42275)
Acetylcholinesterase, sequence (O42275 whole entry): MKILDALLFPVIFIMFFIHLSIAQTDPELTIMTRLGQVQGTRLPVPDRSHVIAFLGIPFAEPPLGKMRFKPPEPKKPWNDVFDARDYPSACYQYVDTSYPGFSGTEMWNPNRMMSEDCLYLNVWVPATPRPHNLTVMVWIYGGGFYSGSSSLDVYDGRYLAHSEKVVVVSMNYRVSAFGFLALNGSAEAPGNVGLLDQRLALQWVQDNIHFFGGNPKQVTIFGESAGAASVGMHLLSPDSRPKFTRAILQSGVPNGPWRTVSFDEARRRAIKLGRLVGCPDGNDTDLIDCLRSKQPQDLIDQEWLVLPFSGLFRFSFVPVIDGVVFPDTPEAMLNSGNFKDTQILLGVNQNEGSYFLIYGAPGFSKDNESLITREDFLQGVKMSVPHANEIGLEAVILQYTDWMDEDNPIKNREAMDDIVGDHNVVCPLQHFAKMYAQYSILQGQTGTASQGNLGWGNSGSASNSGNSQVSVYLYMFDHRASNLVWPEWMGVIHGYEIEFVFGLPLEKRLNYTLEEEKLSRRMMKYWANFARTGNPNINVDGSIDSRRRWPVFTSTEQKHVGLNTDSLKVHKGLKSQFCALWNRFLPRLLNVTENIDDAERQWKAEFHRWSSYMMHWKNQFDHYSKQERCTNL
Description: Inhibition of electric eel AChE pre-incubated for 20 mins before acetylcholine iodide substrate addition by Ellman's assay

[4] = system: HT-22; test: Cytoprotective activity in mouse HT22 cells assessed as reduction in glutamate-induced cytotoxicity at 10 uM pre-incubated for 30 mins before incubation with glutamate for 24 hrs by MTT assay; type: functional, cell-based
[5] = molecular target: Amyloid-beta precursor protein (Homo sapiens) (UniProt P05067); test: Inhibition of Amyloid beta (1 to 42) (unknown origin) self aggregation at 5 uM pre-incubated for 24 hrs by Thioflavin T-based fluorometric assay
Amyloid-beta precursor protein (Homo sapiens), sequence (P05067 whole entry, the tested form may be a part): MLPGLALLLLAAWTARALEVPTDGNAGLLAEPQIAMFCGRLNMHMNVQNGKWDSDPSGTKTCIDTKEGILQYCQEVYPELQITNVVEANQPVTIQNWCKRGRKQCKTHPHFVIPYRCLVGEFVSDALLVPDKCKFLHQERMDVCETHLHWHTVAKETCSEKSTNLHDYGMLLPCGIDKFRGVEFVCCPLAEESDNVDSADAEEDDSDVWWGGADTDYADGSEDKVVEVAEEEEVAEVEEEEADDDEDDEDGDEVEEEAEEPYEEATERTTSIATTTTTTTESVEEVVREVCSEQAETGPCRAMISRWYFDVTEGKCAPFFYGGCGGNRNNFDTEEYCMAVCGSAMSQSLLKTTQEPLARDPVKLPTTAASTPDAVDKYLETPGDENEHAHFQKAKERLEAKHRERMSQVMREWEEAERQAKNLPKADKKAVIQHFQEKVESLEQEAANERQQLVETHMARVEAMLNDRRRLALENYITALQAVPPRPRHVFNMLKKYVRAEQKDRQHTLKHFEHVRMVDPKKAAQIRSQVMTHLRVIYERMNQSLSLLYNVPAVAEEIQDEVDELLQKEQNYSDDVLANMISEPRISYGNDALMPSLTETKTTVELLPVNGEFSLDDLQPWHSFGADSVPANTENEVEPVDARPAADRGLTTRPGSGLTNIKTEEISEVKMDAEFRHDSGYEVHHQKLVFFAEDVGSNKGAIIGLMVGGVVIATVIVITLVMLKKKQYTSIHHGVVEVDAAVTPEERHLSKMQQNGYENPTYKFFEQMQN

[6] = molecular target: Beta-secretase 1 (Homo sapiens) (UniProt P56817); test: Inhibition of BACE1 (unknown origin) at 10 uM using ([Asn670, Lue671]-Amyloid beta/A4 precursor protein 770 fragment 667-676-(2,4dinitrophenyl) Lys-Arg-Arg amide trifluoroacetate salt substrate incubated for 2 hrs by FRET assay
Beta-secretase 1 (Homo sapiens), sequence (P56817 whole entry, the tested form may be a part): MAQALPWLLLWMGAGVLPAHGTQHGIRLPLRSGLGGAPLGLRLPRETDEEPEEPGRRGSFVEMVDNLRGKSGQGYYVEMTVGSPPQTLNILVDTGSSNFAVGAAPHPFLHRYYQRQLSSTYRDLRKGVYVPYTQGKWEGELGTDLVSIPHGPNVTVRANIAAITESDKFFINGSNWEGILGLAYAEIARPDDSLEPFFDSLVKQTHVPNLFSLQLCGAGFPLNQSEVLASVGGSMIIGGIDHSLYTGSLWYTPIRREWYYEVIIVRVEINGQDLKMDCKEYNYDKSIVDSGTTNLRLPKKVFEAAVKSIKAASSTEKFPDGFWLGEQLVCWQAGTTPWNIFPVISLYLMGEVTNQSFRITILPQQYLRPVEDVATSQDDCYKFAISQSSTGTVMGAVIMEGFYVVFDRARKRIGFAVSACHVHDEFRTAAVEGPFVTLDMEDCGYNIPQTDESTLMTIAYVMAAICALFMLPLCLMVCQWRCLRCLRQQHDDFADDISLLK

[7] = molecular target: Amyloid-beta precursor protein (Homo sapiens) (UniProt P05067); test: Inhibition of Amyloid beta (1 to 42) (unknown origin) self aggregation at 50 uM pre-incubated for 24 hrs by Thioflavin T-based fluorometric assay
[8] = system: HT-22; test: Cytotoxicity against mouse HT22 cells assessed as reduction in cell viability at 100 uM after 24 hrs by MTT assay; type: cell-based; conditions: ht-22, 24 h
[9] = system: HT-22; test: Cytoprotective activity in mouse HT22 cells assessed as reduction in glutamate-induced cytotoxicity at 0.3 to 10 uM pre-incubated for 30 mins before incubation with glutamate for 24 hrs by MTT assay; type: functional, cell-based
[10] = system: HT-22; test: Cytotoxicity against mouse HT22 cells assessed as reduction in cell viability at 10 to 100 uM after 24 hrs by MTT assay; type: cell-based; conditions: ht-22, 24 h
[11] = system: HT-22; test: Cytoprotective activity in mouse HT22 cells assessed as reduction in glutamate-induced cytotoxicity at 3 uM pre-incubated for 30 mins before incubation with glutamate for 24 hrs by MTT assay; type: functional, cell-based
[12] = system: HT-22; test: Cytotoxicity against mouse HT22 cells assessed as reduction in cell viability at 30 to 100 uM after 24 hrs by MTT assay; type: cell-based; conditions: ht-22, 24 h
[13] = system: HT-22; test: Cytotoxicity against mouse HT22 cells assessed as reduction in cell viability at 10 uM after 24 hrs by MTT assay; type: cell-based; conditions: ht-22, 24 h

SMILES: O=C(/C=C/c1ccc(O)c(O)c1)NCC(O)CNc1c2c(nc3cc(Cl)ccc13)CCCC2 (stereo not given)
- Activity [1]: Active
- IC50 [2]: 360 nM
- IC50 [3]: 150 nM
- Activity [4]: Active
- inhibition [5]: 9.2%
- inhibition [6]: 13.1%
- inhibition [7]: 53.2%
- Activity [8]: Toxic

SMILES: COc1cc(/C=C/C(=O)NCC(O)CNc2c3c(nc4cc(Cl)ccc24)CCCC3)ccc1O (stereo not given)
- Activity [9]: inactive
- IC50 [2]: 710 nM
- IC50 [3]: 20 nM
- inhibition [5]: 13.5%
- inhibition [6]: 2.57%
- inhibition [7]: 48.9%
- Activity [8]: Toxic

SMILES: O=C(/C=C/c1ccc(O)c(O)c1)NCC(O)CNc1c2c(nc3ccccc13)CCCC2 (stereo not given)
- Activity [10]: Non-toxic
- Activity [9]: inactive
- IC50 [2]: 1010 nM
- IC50 [3]: 700 nM
- inhibition [5]: 12.8%
- inhibition [6]: 10.5%
- inhibition [7]: 49.8%

SMILES: O=C(CCCCC1CCSS1)NCC(O)CNc1c2c(nc3cc(Cl)ccc13)CCCC2 (stereo not given)
- IC50 [2]: 1030 nM
- Activity [11]: Active
- IC50 [3]: 40 nM
- inhibition [6]: 46.8%
- Activity [12]: Toxic
- Activity [13]: Toxic

SMILES: O=C(CCCCC1CCSS1)NCC(O)CNc1c2c(nc3ccccc13)CCCC2 (stereo not given)
- IC50 [2]: 1180 nM
- Activity [11]: Active
- IC50 [3]: 100 nM
- inhibition [6]: 24.8%
- Activity [12]: Toxic

SMILES: COc1cc(/C=C/C(=O)NCC(O)CNc2c3c(nc4ccccc24)CCCC3)ccc1O (stereo not given)
- Activity [10]: Non-toxic
- Activity [9]: inactive
- IC50 [2]: 310 nM
- IC50 [3]: 30 nM
- inhibition [5]: 8.4%
- inhibition [6]: 15%
- inhibition [7]: 46.3%
